Data reported in patent US10927123B2, “Modulators of the beta-3 adrenergic receptor useful for the treatment or prevention of disorders related thereto” (Arena Pharmaceuticals, Inc., priority 2016, dated 2021).

Target: Beta-3 Adrenergic Receptor (Homo sapiens (Human), UniProt P13945)
Assay: HTRF cAMP antagonist assay (IC50 determination)
Format: cell-based
Details: CHO-K1 cells stably expressing recombinant receptor; antagonism of isoproterenol at EC90; cAMP readout
Protocol: HTRF cAMP assays were performed according to manufacturer's instructions (Cisbio, cAMP Dynamic 2 Assay Kit; #62AM4PEJ). CHO-K1 cells stably expressing recombinant receptor were harvested and suspended in warm PBS to make a 300,000 cells/mL stock. This cell suspension was dispensed into 384 well assay plates (PerkinElmer ProxiPlate #6008280) at 5 μL per well (1500 cells/well) along with a cAMP standard curve.
Compounds were dissolved and serially diluted (5-fold) in DMSO to generate a 10-point dose response stock. The stock was then diluted 100-fold in assay buffer (PBS containing 1 mM IBMX) before a volume of 2.5 μL was added to the cells (the final, top concentration of compound in the dose-response is typically 10 or 100 μM). After a brief incubation, 2.5 μL of isoproterenol stock, prepared at a concentration 4 times its EC90 at the receptor of interest, was added to the wells. The EC90 for isoproterenol, a beta-adrenergic agonist, was determined in separate experiments using standard methods to measure agonist potencies.
Following a 1-hour incubation at room temperature, 5 μL of cAMP-D2 Reagent diluted in Lysis Buffer was added to each well followed by 5 μL of Cryptate Reagent. Plates were further incubated at room temperature for 1 hour prior to reading. Time resolved fluorescence measurements were collected on a suitable, HTRF-capable plate reader.
Counts from the plate reader were fit to the cAMP standard curve on the assay plate in order to determine cAMP concentrations in each well, and these values were used to construct dose-response curves to obtain IC50 values.

Chain of Beta-3 Adrenergic Receptor (P13945 whole entry, species assumed): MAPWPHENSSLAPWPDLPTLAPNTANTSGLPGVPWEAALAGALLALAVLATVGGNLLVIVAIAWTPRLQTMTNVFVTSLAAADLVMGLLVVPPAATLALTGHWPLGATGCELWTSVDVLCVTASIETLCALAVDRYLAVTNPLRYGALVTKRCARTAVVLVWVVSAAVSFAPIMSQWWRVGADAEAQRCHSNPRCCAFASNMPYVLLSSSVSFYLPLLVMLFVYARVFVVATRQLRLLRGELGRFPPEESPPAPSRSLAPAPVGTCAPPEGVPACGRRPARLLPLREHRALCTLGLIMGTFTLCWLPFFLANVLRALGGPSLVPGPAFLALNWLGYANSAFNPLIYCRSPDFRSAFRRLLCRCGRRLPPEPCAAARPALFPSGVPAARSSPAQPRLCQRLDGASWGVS

Compound | IC50 [nM]
NCc1ccc(-c2cccc(S(=O)(=O)N3CCC4(CC3)C[C@@H](NC[C@H](O)COc3cccc(S(=O)(=O)CCO)c3)CO4)c2)cc1 [Compound 91, (S)-1-((R)-8-(4′-(aminomethyl)biphenyl-3-ylsulfonyl)-1-oxa-8-azaspiro[4.5]decan-3-ylamino)-3-(3-(2-hydroxyethylsulfonyl)phenoxy)propan-2-ol] | 37.1
O=S(=O)(c1cccc(OC[C@@H](O)CN[C@H]2COC3(CCN(S(=O)(=O)c4cnc5ccccc5c4)CC3)C2)c1)C1CC1 [Compound 144, (S)-1-(3-(cyclopropylsulfonyl)phenoxy)-3-((R)-8-(quinolin-3-ylsulfonyl)-1-oxa-8-azaspiro[4.5]decan-3-ylamino)propan-2-ol] | 7.77
O=S(=O)(c1cccc(-c2ccc(CNC3CCC3)cc2)c1)N1CCC2(CC1)C[C@@H](NC[C@H](O)COc1cccc(S(=O)(=O)C3(CO)CC3)c1)CO2 [Compound 269, (S)-1-((R)-8-(4′-((cyclobutylamino)methyl)biphenyl-3-ylsulfonyl)-1-oxa-8-azaspiro[4.5]decan-3-ylamino)-3-(3-(1-(hydroxymethyl)cyclopropylsulfonyl)phenoxy)propan-2-ol] | 400
COCS(=O)(=O)c1cccc(OC[C@@H](O)CN[C@H]2COC3(CCN(S(=O)(=O)c4c[nH]c5ccccc45)CC3)C2)c1 [Compound 312, (S)-1-((R)-8-(1H-indol-3-ylsulfonyl)-1-oxa-8-azaspiro[4.5]decan-3-ylamino)-3-(3-(methoxymethylsulfonyl)phenoxy)propan-2-ol] | 31.5
COc1cccc(S(=O)(=O)N2CCC3(CC2)CC(NC[C@H](O)COc2cccc(S(C)(=O)=O)c2)CO3)c1 (stereo partly drawn) [Compound 49, (2S)-1-(8-(3-methoxyphenylsulfonyl)-1-oxa-8-azaspiro[4.5]decan-3-ylamino)-3-(3-(methylsulfonyl)phenoxy)propan-2-ol] | 33.1
NCc1ccc(-c2cccc(S(=O)(=O)N3CCC4(CC3)C[C@@H](NC[C@H](O)COc3cccc(S(=O)(=O)C5(CO)CC5)c3)CO4)c2)cc1 [Compound 157, (S)-1-((R)-8-(4′-(aminomethyl)biphenyl-3-ylsulfonyl)-1-oxa-8-azaspiro[4.5]decan-3-ylamino)-3-(3-(1-(hydroxymethyl)cyclopropylsulfonyl)phenoxy)propan-2-ol] | 25.7
O=S(=O)(c1cnc2ccccc2c1)N1CCC2(CC1)C[C@@H](NC[C@H](O)COc1cccc(S(=O)(=O)C(F)(F)CO)c1)CO2 [Compound 130, (S)-1-(3-(1,1-difluoro-2-hydroxyethylsulfonyl)phenoxy)-3-((R)-8-(quinolin-3-ylsulfonyl)-1-oxa-8-azaspiro[4.5]decan-3-ylamino)propan-2-ol] | 12
CCOc1ccc(-c2ccc(C(C)(C)CN)cc2)cc1S(=O)(=O)N1CCC2(CC1)C[C@H](NC[C@H](O)COc1cccc(S(=O)(=O)C3(CO)CC3)c1)CO2 [Compound 176, (S)-1-((S)-8-(4′-(1-amino-2-methylpropan-2-yl)-4-ethoxybiphenyl-3-ylsulfonyl)-1-oxa-8-azaspiro[4.5]decan-3-ylamino)-3-(3-(1-(hydroxymethyl)cyclopropylsulfonyl)phenoxy)propan-2-ol] | 58.4
O=S(=O)(c1cccc(OC[C@@H](O)CN[C@H]2COC3(CCN(S(=O)(=O)c4cnc5c(c4)CCCO5)CC3)C2)c1)C1CC1 [Compound 291, (5)-1-(3-(cyclopropylsulfonyl)phenoxy)-3-((R)-8-(3,4-dihydro-2H-pyrano[2,3-b]pyridin-6-ylsulfonyl)-1-oxa-8-azaspiro[4.5]decan-3-ylamino)propan-2-ol] | 69.8
O=S(=O)(c1cccc(-c2ccc(CN3CCC3)cc2)c1)N1CCC2(CC1)C[C@@H](NC[C@H](O)COc1cccc(S(=O)(=O)C3(CO)CC3)c1)CO2 [Compound 265, (S)-1-((R)-8-(4′-(azetidin-1-ylmethyl)biphenyl-3-ylsulfonyl)-1-oxa-8-azaspiro[4.5]decan-3-ylamino)-3-(3-(1-(hydroxymethyl)cyclopropylsulfonyl)phenoxy)propan-2-ol] | 374
O=S(=O)(CCO)c1cccc(OC[C@@H](O)CN[C@H]2COC3(CCN(S(=O)(=O)c4ccc5ncccc5c4)CC3)C2)c1 [Compound 93, (S)-1-(3-(2-hydroxyethylsulfonyl)phenoxy)-3-((R)-8-(quinolin-6-ylsulfonyl)-1-oxa-8-azaspiro[4.5]decan-3-ylamino)propan-2-ol] | 75
Cc1c(-c2ccc(CN)cc2)cccc1S(=O)(=O)N1CCC2(CC1)C[C@@H](NC[C@H](O)COc1cccc(S(=O)(=O)C3(CO)CC3)c1)CO2 [Compound 203, (S)-1-((R)-8-(4′-(aminomethyl)-2-methylbiphenyl-3-ylsulfonyl)-1-oxa-8-azaspiro[4.5]decan-3-ylamino)-3-(3-(1-(hydroxymethyl)cyclopropylsulfonyl)phenoxy)propan-2-ol] | 1110
CCn1cc(S(=O)(=O)N2CCC3(CC2)C[C@@H](NC[C@H](O)COc2cccc(S(=O)(=O)C(C)(C)CO)c2)CO3)c(=O)c2ccccc21 [Compound 294, 1-ethyl-3-((R)-3-((S)-2-hydroxy-3-(3-(1-hydroxy-2-methylpropan-2-ylsulfonyl)phenoxy)propylamino)-1-oxa-8-azaspiro[4.5]decan-8-ylsulfonyl)quinolin-4(1H)-one] | 110
O=S(=O)(c1cccnc1)N1CCC2(CC1)C[C@H](NC[C@H](O)COc1cccc(S(=O)(=O)C3(CO)CC3)c1)CO2 [Compound 202, (S)-1-(3-(1-(hydroxymethyl)cyclopropylsulfonyl)phenoxy)-3-((S)-8-(pyridin-3-ylsulfonyl)-1-oxa-8-azaspiro[4.5]decan-3-ylamino)propan-2-ol] | 346
O=S(=O)(CCO)c1cccc(OC[C@@H](O)CN[C@H]2COC3(CCN(S(=O)(=O)c4ccc(-c5ccncc5)cc4)CC3)C2)c1 [Compound 101, (S)-1-(3-(2-hydroxyethylsulfonyl)phenoxy)-3-((R)-8-(4-(pyridin-4-yl)phenylsulfonyl)-1-oxa-8-azaspiro[4.5]decan-3-ylamino)propan-2-ol] | 466
O=S(=O)(c1ccc2ccccc2c1)N1CCC2(CC1)C[C@@H](NC[C@H](O)COc1cccc(S(=O)(=O)C3(CO)CC3)c1)CO2 [Compound 300, (S)-1-(3-(1-(hydroxymethyl)cyclopropylsulfonyl)phenoxy)-3-((R)-8-(naphthalen-2-ylsulfonyl)-1-oxa-8-azaspiro[4.5]decan-3-ylamino)propan-2-ol] | 20.4
O=S(=O)(c1cccc(OC[C@@H](O)CNC2COC3(CCN(S(=O)(=O)c4ccc5ccccc5c4)CC3)C2)c1)C1CCC1 (stereo partly drawn) [Compound 18, (2S)-1-(3-(cyclobutylsulfonyl)phenoxy)-3-(8-(naphthalen-2-ylsulfonyl)-1-oxa-8-azaspiro[4.5]decan-3-ylamino)propan-2-ol] | 48.9
O=S(=O)(c1ccc2ncccc2c1)N1CCC2(CC1)C[C@@H](NC[C@H](O)COc1cccc(S(=O)(=O)C3(CO)CC3)c1)CO2 [Compound 147, (S)-1-(3-(1-(hydroxymethyl)cyclopropylsulfonyl)phenoxy)-3-((R)-8-(quinolin-6-ylsulfonyl)-1-oxa-8-azaspiro[4.5]decan-3-ylamino)propan-2-ol] | 53.3
Cc1cccc(S(=O)(=O)N2CCC3(CC2)CC(NC[C@H](O)COc2cccc(S(C)(=O)=O)c2)CO3)c1 (stereo partly drawn) [Compound 48, (2S)-1-(3-(methylsulfonyl)phenoxy)-3-(8-(m-tolylsulfonyl)-1-oxa-8-azaspiro[4.5]decan-3-ylamino)propan-2-ol] | 46.1
Cn1cc(S(=O)(=O)N2CCC3(CC2)C[C@@H](NC[C@H](O)COc2cccc(S(=O)(=O)C4(CO)CC4)c2)CO3)c(=O)c2ccccc21 [Compound 295, 3-((R)-3-((S)-2-hydroxy-3-(3-(1-(hydroxymethyl)cyclopropylsulfonyl)phenoxy)propylamino)-1-oxa-8-azaspiro[4.5]decan-8-ylsulfonyl)-1-methylquinolin-4(1H)-one] | 143
CCCCNCc1ccc(-c2cccc(S(=O)(=O)N3CCC4(CC3)C[C@H](NC[C@H](O)COc3cccc(S(=O)(=O)C5(CO)CC5)c3)CO4)c2)cc1 [Compound 245, (S)-1-((S)-8-(4′-((butylamino)methyl)biphenyl-3-ylsulfonyl)-1-oxa-8-azaspiro[4.5]decan-3-ylamino)-3-(3-(1-(hydroxymethyl)cyclopropylsulfonyl)phenoxy)propan-2-ol] | 18.4
CCOc1ccc(-c2ccc(CN)cc2)cc1S(=O)(=O)N1CCC2(CC1)C[C@H](NC[C@H](O)COc1cccc(S(=O)(=O)C3CC3)c1)CO2 [Compound 160, (S)-1-((S)-8-(4′-(aminomethyl)-4-ethoxybiphenyl-3-ylsulfonyl)-1-oxa-8-azaspiro[4.5]decan-3-ylamino)-3-(3-(cyclopropylsulfonyl)phenoxy)propan-2-ol] | 11.6
O=S(=O)(CCO)c1cccc(OC[C@@H](O)CN[C@H]2COC3(CCN(S(=O)(=O)c4cccc(-c5ccccn5)c4)CC3)C2)c1 [Compound 100, (S)-1-(3-(2-hydroxyethylsulfonyl)phenoxy)-3-((R)-8-(3-(pyridin-2-yl)phenylsulfonyl)-1-oxa-8-azaspiro[4.5]decan-3-ylamino)propan-2-ol] | 92.2
